Experimental data taken from a flash point compilation (Sun et al. 2020).

flash point [°C] | SMILES
60.00 | CCCCC=C[Si](Cl)(Cl)Cl [1-Hexenyltrichlorosilane]
45.00 | CO[Si](C)(CCCCl)OC [3-Chloropropylmethyldimethoxysilane]
92.00 | C=C(C)C(=O)OCCC[Si](OC)(OC)OC [3-Methacryloxypropyltrimethoxysilane]
18.00 | C=CC=CC[Si](C)(C)C [(2,4-Pentadienyl)trimethylsilane]
96.00 | CO[Si](CCCNCCN)(OC)OC [Aminoethylaminopropyltrimethoxysilane]
62.00 | C[Si](C)(C)Cc1ccccc1 [Benzyltrimethylsilane]
22.00 | C[Si](C)(Cl)CCl [Chloromethyldimethylchlorosilane]
77.00 | C[Si]1(C)O[Si](C)(C)O[Si](C)(C)O[Si](C)(C)O[Si](C)(C)O1 [Decamethylcyclopentasiloxane]
43.00 | CCO[Si](CC)(CC)OCC [Diethyldiethoxysilane]
-8.00 | CO[Si](C)(C)OC [Dimethyldimethoxysilane]
142.00 | Cl[Si](Cl)(c1ccccc1)c1ccccc1 [Diphenyldichlorosilane]
98.00 | c1ccc([SiH2]c2ccccc2)cc1 [Diphenylsilane]
79.00 | C[Si](C)(C)O[Si](C)(C)O[Si](C)(C)O[Si](C)(C)O[Si](C)(C)C [Dodecamethylpentasiloxane]
-60.00 | CC[SiH3] [Ethylsilane]
76.00 | CC[Si](CC)(CC)O[Si](CC)(CC)CC [Hexaethyldisiloxane]
32.00 | C[Si]1(C)O[Si](C)(C)O[Si](C)(C)O1 [Hexamethylcyclotrisiloxane]
26.00 | C[Si](C)(C)S[Si](C)(C)C [Hexamethyldisilthiane]

flash point [°C] | SMILES
37.00 | CC(C)C[Si](Cl)(Cl)Cl [Isobutyltrichlorosilane]
24.00 | CCO[Si](C)(OCC)OCC [Methyltriethoxysilane]
27.00 | C[Si](C)(C)N1CCOCC1 [N-(Trimethylsilyl)morpholine]
-19.00 | C[SiH](C)O[Si](C)(C)C [Pentamethyldisiloxane]
8.00 | [SiH3]c1ccccc1 [Phenylsilane]
85.00 | CO[Si](OC)(OC)c1ccccc1 [Phenyltrimethoxysilane]
67.00 | C[SiH](C)O[Si](O[SiH](C)C)(O[SiH](C)C)O[SiH](C)C [Tetrakisdimethylsiloxysilane]
91.00 | Cl[Si](Cl)(Cl)CCc1ccccc1 [Trichloro(2-phenylethyl)silane]
-3.00 | CC[SiH](CC)CC [Triethylsilane]
10.00 | CCCO[Si](C)(C)C [Trimethyl-n-propoxysilane]
23.00 | C=C[Si](OC)(OC)OC [Vinyltrimethoxysilane]
80.00 | C=C[Si](OCCOC)(OCCOC)OCCOC [Vinyltris(methoxyethoxy)silane]
120.00 | CCCCCCCCCC[Si](C)(Cl)Cl [n-Decylmethyldichlorosilane]
22.00 | CC(C)(C)[Si](C)(C)Cl [t-Butyldimethylchlorosilane]
-22.00 | C[SiH](C)C(C)(C)C [t-Butyldimethylsilane]
45.00 | CC(C)(C)[Si](C)(C)O [t-Butyldimethylsilanol]

Second part, the compound before the results:

SMILES | flash point [°C]
CO[Si](CCC1CCC2OC2C1)(OC)OC (stereo not given) [2-(3,4-epoxycyclohexyl)ethyltrimethoxysilane] | 146.00
CC(CCl)C[Si](C)(Cl)Cl (stereo not given) [3-Chloro-2-methylpropylmethyldichlorosilane] | 90.00
C[Si](C)(C)OC1=CCCC1 [(Cyclopentenyloxy)trimethylsilane] | 38.00
CCN(CC)[Si](C)(C)C [(Diethylamino)trimethylsilane] | 10.00
CCN(CC)[Si](C)(C)N(CC)CC [Bis(diethylamino)dimethylsilane] | 35.00
C[Si](C)(Cl)CCC(F)(F)F [Chlorodimethyl(3,3,3-trifluoropropyl) silane] | 20.00
Cl[Si](Cl)(Cl)C1CCCCC1 [Cyclohexyltrichlorosilane] | 85.00
C[Si](C)(C)C1C=CC=C1 [Cyclopentadienyltrimethylsilane] | 29.00
CO[Si](OC)(c1ccccc1)c1ccccc1 [Diphenyldimethoxysilane] | 121.00
C[Si]1(C)O[Si](C)(C)O[Si](C)(C)O[Si](C)(C)O[Si](C)(C)O[Si](C)(C)O1 [Dodecamethylcyclohexasiloxane] | 93.00
CC[Si](C)(C)Cl [Ethyldimethylchlorosilane] | -4.00
CCCCCCCCCCCCCCCC[Si](Cl)(Cl)Cl [Hexadecyltrichlorosilane] | 154.00
C[Si](C)(C)N[Si](C)(C)C [Hexamethyldisilazane] | 8.00
C[Si]1(C)N[Si](C)(C)N[Si](C)(C)N[Si](C)(C)N1 [Octamethylcyclotetrasilazane] | 66.00
CCCCCCCC[Si](OCC)(OCC)OCC [Octyltriethoxysilane] | 100.00
C[SiH](C)c1ccccc1 [Phenyldimethylsilane] | 38.00
C#CCO[Si](C)(C)C [Propargyloxytrimethylsilane] | 27.00

SMILES | flash point [°C]
CCC[Si](O[SiH](C)C)(O[SiH](C)C)O[SiH](C)C [Propyltris(dimethylsiloxy)silane] | 50.00
O=C=N[Si](N=C=O)(N=C=O)N=C=O [Tetraisocyanatosilane] | 50.00
CCC[SiH](CCC)CCC [Tri-n-propylsilane] | 43.00
N#CCCC[Si](Cl)(Cl)Cl [Trichloro(3-cyanopropyl) Silane] | 92.00
ClC[Si](Cl)(Cl)Cl [Trichloro(Chloromethyl) silane] | 69.00
C=CO[Si](C)(C)C [Trimethyl(vinyloxy)silane] | -10.00
C[Si](C)(C)F [Trimethylfluorosilane] | -35.00
C=C[Si](C)(C)O[Si](C)(C)C [Vinylpentamethyldisiloxane] | 12.00
CCCCCCCCCCCC[Si](C)(Cl)Cl [n-Dodecylmethyldichlorosilane] | 143.00
CCCCCCCCCCCC[Si](Cl)(Cl)Cl [n-Dodecyltrichlorosilane] | 162.00
CCCCCC[Si](C)(Cl)Cl [n-Hexylmethyldichlorosilane] | 85.00
CCCCCC[Si](Cl)(Cl)Cl [n-Hexyltrichlorosilane] | 85.00
CCCCCCCC[Si](C)(C)Cl [n-Octyldimethylchlorosilane] | 97.00
CCCCCCCC[Si](Cl)(Cl)Cl [n-Octyltrichlorosilane] | 96.00
CCC[Si](C)(Cl)Cl [n-Propylmethyldichlorosilane] | 27.00
C[Si](C)(C)c1ccc(Cl)cc1 [p-Chlorophenyltrimethylsilane] | 49.00
CC(C)(C)O[Si](C)(C)C [t-Butoxytrimethylsilane] | 14.00

Remark: another data set of the same source

flash point [°C] | SMILES
-16 | CC1(C)CCCC1 [1,1-dimethylcyclopentane]
58 | CCc1ccccc1C(C)C [1-ethyl-2-isopropylbenzene]
31 | CCCC(C)(C)C(C)(C)C [2,2,3,3-tetramethylhexane]
-17 | C=C(C)C(C)CC (stereo not given) [2,3-dimethyl-1-pentene]
-34 | C#CC(C)(C)C [3,3-dimethyl-1-butyne]
-12 | CCC(CC)CC [3-ethylpentane]
22 | CCCCC(C)CCC (stereo not given) [4-methyloctane]
-10 | C=CCCC(C)C [5-methyl-1-hexene]
18 | C=CCCCCC(C)C [7-methyl-1-octene]
-28 | CC/C=C\CC [cis-3-hexene]
-4 | CCC1CCCC1 [ethylcyclopentane]
117 | CCCCCCCCCc1ccccc1 [n-nonylbenzene]

Second part, the compound before the results:

SMILES | flash point [°C]
C[C@H]1CCC[C@H](C)C1 (relative stereo) [trans-1,3-dimethylcyclohexane] | 8
C=CCC=CC [1,4-hexadiene] | -25
CC(C)(C)CCC(C)(C)C [2,2,5,5-tetramethylhexane] | 16
CC(C)C(C)(C)C(C)C [2,3,3,4-tetramethylpentane] | 11
C=C(C)C(C)(C)C [2,3,3-trimethyl-1-butene] | -17
CCC(C)CCCC(C)C (stereo not given) [2,6-dimethyloctane] | 34
C=C(CC)CCC [2-ethyl-1-pentene] | -10
CCC(CC)C(C)C [3-ethyl-2-methylpentane] | 3
CCCCCCC(C)CC (stereo not given) [3-methylnonane] | 41
C=CCC(C)(C)C [4,4-dimethyl-1-pentene] | -12
CC#CC(C)(C)C [4,4-dimethyl-2-pentyne] | -10
C=CCC(C)CC (stereo not given) [4-methyl-1-hexene] | -15
C#CCC(C)C [4-methyl-1-pentyne] | -24
C#CCCC(C)C [5-methyl-1-hexyne] | -4
C[C@@H]1CCC[C@@H]1C [cis-1,2-dimethylcyclopentane] | -4
C/C=C\CCC [cis-2-hexene] | -26
C/C=C\CC [cis-2-pentene] | -47
CC/C=C\CCCC [cis-3-octene] | 17
CCC/C=C\CCC [cis-4-octene] | 17
C1=CCCCCCC1 [cyclooctene] | 25
Cc1cccc(C(C)C)c1 [m-isopropyltoluene] | 50
